Measured values from patent US20060229299A1, “5ht2c Receptor antagonists in the treatment of schizophrenia” (priority 2003, published 2006).
Read-outs that look alike come from different tables or passages of the source.

Legend:
[1] = design: key: 1-high; 2-medium; 3-low probability; conditions: Table 4A; grading of probability from literature reports; cited from earlier work
5-HT2C receptor [2] = target: T1, 5-HT2C receptor (Homo sapiens, UniProt P28335); conditions: Table 3; expressed as pKi or pKd values; known affinities; cited from earlier work
T1 sequence (P28335 33-458): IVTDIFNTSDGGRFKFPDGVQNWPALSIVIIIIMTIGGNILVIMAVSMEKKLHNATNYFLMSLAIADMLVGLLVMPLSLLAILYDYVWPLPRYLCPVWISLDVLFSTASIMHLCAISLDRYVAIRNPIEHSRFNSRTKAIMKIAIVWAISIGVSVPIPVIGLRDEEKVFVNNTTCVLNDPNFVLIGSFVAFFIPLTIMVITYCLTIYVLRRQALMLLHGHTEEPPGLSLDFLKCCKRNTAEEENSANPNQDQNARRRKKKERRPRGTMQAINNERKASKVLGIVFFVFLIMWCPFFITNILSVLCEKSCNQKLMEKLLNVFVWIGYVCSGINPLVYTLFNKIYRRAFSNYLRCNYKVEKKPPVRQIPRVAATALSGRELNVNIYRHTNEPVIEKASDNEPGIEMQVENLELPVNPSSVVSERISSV

[3] = test system: 5-HT2C receptor relative to 5-HT2A and D2 receptors; assay: Relative 5-HT2C affinity (formula I, sum of 5-HT2C/5-HT2A and 5-HT2C/D2 affinity ratios)
5-HT2A receptor = 5-HT2A receptor (Homo sapiens, UniProt P28223); conditions: Table 3; expressed as pKi or pKd values; known affinities; cited from earlier work
D2 receptor = D2 receptor (Homo sapiens, UniProt P14416); conditions: Table 3; expressed as pKi or pKd values; known affinities; cited from earlier work
[4] = design: key: 1-high; 2-medium; 3-low probability; conditions: Table 4A; grading of probability from literature reports; cited from earlier work; remark: listed apart in the source
[5] = design: key to Weight Gain: 1-high; 2-medium; 3-low probability; conditions: cited from earlier work; for Weight Gain: Table 4A, grading of probability from literature reports
D4 dopamine receptor = target: T2, D4 dopamine receptor (Homo sapiens, UniProt P21917); conditions: human; cited from earlier work
T2 sequence (P21917 1-419): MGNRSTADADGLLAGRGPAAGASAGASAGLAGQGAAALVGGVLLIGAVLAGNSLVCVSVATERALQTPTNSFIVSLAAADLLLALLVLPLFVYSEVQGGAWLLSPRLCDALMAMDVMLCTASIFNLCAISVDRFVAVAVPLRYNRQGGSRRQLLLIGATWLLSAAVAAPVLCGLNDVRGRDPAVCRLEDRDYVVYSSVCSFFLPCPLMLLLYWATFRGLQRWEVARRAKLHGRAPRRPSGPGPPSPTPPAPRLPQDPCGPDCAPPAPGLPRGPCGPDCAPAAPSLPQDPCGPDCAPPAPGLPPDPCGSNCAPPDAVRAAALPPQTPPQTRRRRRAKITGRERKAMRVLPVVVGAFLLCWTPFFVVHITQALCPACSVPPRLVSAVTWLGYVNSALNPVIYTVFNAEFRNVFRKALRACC

α1-adrenoceptor [6] = conditions: species for α1 not given; cited from earlier work
[7] = target: mACh, muscarinic acetylcholine receptor; conditions: rat; cited from earlier work
5-HT1A receptor = target: T3, 5-HT1A receptor (Rattus norvegicus, UniProt P19327); conditions: cited from earlier work
T3 sequence (P19327 1-422): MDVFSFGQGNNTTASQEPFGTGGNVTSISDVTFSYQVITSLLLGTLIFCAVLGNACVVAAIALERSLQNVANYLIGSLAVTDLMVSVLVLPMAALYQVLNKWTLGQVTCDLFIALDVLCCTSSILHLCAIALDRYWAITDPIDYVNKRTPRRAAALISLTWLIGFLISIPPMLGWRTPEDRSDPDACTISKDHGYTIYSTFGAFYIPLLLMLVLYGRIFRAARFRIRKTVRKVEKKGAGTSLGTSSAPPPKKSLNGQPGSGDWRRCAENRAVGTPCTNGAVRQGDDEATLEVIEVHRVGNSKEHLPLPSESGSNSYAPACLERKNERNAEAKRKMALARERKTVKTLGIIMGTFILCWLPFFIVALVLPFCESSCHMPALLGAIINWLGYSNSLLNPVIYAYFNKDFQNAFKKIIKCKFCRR

α2-adrenoceptor = conditions: cited from earlier work
5-HT3 receptor = target: T4, 5-HT3 receptor (Mus musculus, UniProt P23979); conditions: cited from earlier work
T4 sequence (P23979 24-489): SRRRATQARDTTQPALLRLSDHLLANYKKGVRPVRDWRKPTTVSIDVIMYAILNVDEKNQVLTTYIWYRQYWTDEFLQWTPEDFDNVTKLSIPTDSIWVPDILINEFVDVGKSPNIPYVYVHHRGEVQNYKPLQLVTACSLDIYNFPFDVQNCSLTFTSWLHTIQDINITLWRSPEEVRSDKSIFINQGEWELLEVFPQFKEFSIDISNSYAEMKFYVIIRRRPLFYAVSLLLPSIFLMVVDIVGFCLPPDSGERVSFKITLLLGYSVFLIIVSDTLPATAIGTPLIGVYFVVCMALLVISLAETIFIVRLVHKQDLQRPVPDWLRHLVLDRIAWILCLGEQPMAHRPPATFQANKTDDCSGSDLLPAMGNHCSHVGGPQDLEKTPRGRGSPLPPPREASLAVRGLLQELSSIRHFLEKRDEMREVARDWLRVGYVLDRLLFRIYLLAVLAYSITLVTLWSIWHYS

sigma, σ receptor = conditions: guinea-pig; cited from earlier work
5-HT2C receptor [8] = target: T5, 5-HT2C receptor (Sus scrofa, UniProt K7GSR7); conditions: pig; cited from earlier work
T5 sequence (K7GSR7 1-457): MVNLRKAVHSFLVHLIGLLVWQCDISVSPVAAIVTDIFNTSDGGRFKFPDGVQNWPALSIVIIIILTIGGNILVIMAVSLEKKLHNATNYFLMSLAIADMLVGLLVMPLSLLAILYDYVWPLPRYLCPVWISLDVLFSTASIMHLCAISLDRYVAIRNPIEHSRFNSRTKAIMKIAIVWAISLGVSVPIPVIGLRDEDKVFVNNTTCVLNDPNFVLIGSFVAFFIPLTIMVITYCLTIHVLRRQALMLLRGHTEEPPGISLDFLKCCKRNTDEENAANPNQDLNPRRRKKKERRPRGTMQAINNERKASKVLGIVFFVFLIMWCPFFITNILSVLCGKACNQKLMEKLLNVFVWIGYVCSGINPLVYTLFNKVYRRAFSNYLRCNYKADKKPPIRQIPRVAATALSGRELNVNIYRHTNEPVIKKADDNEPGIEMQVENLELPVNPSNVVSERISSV

[9] = target: D2-S (short form of D2 receptor) (Homo sapiens, UniProt P14416); conditions: cited from earlier work
5-HT7 receptor [10] = target: 5-HT7 receptor (Mus musculus, UniProt P32304); conditions: cited from earlier work
[11] = target: D2-L (long form of D2 receptor) (Homo sapiens, UniProt P14416); conditions: cited from earlier work
5-HT6 receptor = 5-HT6 receptor (Rattus norvegicus, UniProt P31388); conditions: cited from earlier work
α1-adrenoceptor [12] = conditions: rat; cited from earlier work
5-HT7 receptor [13] = target: 5-HT7 receptor (Rattus norvegicus, UniProt P32305); conditions: cited from earlier work
D1 dopamine receptor [14] = target: D1 dopamine receptor (Rattus norvegicus, UniProt P18901); conditions: cited from earlier work
[15] = design: key: 1-high; 2-medium; 3-low probability; conditions: Table 4A; grading of probability from literature reports; cited from earlier work; remark: listed apart in the source
D1 dopamine receptor [16] = target: D1 dopamine receptor (Homo sapiens, UniProt P21728); conditions: cited from earlier work
α1-adrenoceptor [17] = conditions: human, expressed as KD; cited from earlier work
[18] = Table 3, calculated from known 5-HT2C/5-HT2A/D2 affinities

Chain of D2 receptor (P14416 whole entry): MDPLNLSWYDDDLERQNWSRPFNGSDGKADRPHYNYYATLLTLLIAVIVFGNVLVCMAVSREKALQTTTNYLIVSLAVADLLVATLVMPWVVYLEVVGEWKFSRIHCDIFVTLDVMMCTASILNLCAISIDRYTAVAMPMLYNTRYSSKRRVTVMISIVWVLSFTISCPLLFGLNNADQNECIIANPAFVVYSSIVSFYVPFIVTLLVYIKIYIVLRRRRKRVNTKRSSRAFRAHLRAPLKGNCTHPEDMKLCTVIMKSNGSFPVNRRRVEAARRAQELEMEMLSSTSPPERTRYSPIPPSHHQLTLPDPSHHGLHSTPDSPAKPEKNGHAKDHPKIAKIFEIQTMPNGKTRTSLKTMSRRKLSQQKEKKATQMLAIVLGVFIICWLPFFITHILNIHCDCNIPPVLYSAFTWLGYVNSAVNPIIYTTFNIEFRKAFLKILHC
Chain of 5-HT2A receptor (P28223 whole entry): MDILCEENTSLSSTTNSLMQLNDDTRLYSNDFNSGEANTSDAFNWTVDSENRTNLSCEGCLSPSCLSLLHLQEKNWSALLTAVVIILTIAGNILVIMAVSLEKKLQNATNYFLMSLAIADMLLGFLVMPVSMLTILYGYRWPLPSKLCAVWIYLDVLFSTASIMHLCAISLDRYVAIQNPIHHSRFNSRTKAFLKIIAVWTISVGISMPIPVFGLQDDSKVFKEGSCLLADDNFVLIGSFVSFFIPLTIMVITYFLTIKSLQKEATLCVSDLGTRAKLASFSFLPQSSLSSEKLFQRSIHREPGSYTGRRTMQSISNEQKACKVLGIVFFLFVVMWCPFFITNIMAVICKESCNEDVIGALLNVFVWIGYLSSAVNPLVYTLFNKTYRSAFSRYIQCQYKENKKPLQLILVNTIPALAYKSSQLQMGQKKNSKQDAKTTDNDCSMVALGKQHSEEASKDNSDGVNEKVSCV
Chain of 5-HT7 receptor (Rattus norvegicus, UniProt P32305) (P32305 whole entry): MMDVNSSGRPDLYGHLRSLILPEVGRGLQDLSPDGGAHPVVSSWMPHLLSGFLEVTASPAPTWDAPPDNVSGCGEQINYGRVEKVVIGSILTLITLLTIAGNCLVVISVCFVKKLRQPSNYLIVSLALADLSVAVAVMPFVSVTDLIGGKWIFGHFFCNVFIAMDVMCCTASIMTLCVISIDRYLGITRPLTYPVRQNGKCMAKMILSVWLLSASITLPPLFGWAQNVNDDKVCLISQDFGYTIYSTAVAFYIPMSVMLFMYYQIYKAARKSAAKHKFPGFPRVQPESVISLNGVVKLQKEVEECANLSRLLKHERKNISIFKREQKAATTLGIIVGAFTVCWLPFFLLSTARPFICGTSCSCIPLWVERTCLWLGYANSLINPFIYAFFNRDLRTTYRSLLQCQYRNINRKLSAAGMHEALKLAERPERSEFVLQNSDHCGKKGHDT
Chain of 5-HT7 receptor (Mus musculus, UniProt P32304) (P32304 whole entry): as the sequence (P32305 whole entry) above, with G27R, P39S, L53P, P279S, S438C counted along it
Chain of 5-HT6 receptor (P31388 whole entry): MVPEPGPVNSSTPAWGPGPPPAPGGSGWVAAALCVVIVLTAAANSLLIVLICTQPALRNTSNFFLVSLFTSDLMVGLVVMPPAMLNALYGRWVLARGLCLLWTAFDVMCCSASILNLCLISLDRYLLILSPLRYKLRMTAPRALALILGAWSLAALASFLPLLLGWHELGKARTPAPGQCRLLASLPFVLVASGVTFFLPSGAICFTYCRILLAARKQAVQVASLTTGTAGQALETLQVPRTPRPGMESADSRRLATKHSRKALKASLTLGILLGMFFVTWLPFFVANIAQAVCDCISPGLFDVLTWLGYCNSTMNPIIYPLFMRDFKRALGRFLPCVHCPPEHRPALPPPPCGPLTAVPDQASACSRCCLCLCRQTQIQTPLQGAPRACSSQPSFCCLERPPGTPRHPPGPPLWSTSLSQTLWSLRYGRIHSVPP
Chain of D1 dopamine receptor (Homo sapiens, UniProt P21728) (P21728 whole entry): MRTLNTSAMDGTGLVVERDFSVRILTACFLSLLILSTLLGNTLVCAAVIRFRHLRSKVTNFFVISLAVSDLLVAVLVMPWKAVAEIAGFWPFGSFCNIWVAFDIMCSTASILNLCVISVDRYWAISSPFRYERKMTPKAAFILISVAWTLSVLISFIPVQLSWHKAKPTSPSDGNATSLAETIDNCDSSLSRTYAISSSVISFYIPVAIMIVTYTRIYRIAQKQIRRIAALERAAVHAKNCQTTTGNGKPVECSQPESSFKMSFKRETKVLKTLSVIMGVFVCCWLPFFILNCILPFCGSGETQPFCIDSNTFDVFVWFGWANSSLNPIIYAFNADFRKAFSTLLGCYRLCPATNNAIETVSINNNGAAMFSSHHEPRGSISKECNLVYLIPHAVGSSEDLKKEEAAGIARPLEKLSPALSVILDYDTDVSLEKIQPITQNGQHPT
Chain of D2-L (long form of D2 receptor) (P14416 whole entry): as the sequence (P14416 whole entry) above
Chain of D2-S (short form of D2 receptor) (P14416 1-414 isoform P14416-2): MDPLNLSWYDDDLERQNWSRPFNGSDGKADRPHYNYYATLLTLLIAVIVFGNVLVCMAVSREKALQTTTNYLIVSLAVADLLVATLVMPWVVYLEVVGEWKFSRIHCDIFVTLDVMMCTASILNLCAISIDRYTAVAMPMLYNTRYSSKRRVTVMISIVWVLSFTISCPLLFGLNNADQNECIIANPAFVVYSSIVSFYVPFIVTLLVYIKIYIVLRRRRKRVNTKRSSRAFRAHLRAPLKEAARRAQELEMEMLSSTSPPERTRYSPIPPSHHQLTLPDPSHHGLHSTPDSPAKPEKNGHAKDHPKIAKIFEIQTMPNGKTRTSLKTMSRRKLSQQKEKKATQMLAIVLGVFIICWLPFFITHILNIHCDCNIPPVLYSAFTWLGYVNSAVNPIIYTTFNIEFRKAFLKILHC
Chain of D1 dopamine receptor (Rattus norvegicus, UniProt P18901) (P18901 whole entry): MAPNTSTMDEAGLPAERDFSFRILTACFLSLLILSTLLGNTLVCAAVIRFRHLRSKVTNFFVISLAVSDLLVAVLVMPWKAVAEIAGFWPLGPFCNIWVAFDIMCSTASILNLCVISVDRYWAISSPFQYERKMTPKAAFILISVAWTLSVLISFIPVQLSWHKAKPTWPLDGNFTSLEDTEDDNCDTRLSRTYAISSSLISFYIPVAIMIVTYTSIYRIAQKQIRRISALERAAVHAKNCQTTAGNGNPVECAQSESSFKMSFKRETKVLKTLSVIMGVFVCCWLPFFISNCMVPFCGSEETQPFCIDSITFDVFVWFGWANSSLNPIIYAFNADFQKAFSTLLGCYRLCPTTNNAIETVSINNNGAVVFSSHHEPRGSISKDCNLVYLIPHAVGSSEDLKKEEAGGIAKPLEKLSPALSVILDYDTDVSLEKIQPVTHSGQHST

## CN1CCN(C2=Nc3cc(Cl)ccc3Nc3ccccc32)CC1 [Clozapine]
[1]
  Extra-pyramidal side effects: 3

## COc1cc(OC)c(C(=O)CCCCN2CCC3(CC2)NC(=O)NC3=O)cc1NS(=O)(=O)c1ccc(C(F)(F)F)cc1 [RS-102221]
5-HT2C receptor [2]
  5-HT2C Affinity: 8.2
[3]; [18]
  Formula I Affinity Ratio: 2.78
5-HT2A receptor
  5-HT2A Affinity: 5.8

## CN(C)CCSc1nc2ccccc2cc1-c1ccccc1 [ICI-169369]
5-HT2C receptor [2]
  5-HT2C Affinity: 8
[3]; [18]
  Formula I Affinity Ratio: 2.27
5-HT2A receptor
  5-HT2A Affinity: 7.7
D2 receptor
  D2 Affinity: 6.5

## CCCN1CCC[C@H]2c3c(OC)cccc3OC[C@@H]21.Cl (stereo in doubt) [CGS-18102A, 10-methoxy-4-propyl-1,2,3,4a,5,10b-hexahydro-4H-[1]-benzopyrano[3,4-b]pyridine hydrochloride]
[3]; [18]
  Formula I Affinity Ratio: 2.06
5-HT2A receptor
  5-HT2A Affinity: 6.6
D2 receptor
  D2 Affinity: 7.4

## CC(C)N1CCN(CCN2CCC(c3cn(-c4ccc(F)cc4)c4cc(Cl)ccc34)CC2)C1=O [LU-26042]
5-HT2C receptor [2]
  5-HT2C Affinity: 7.8
[3]
  Formula I Affinity Ratio: 2.02
5-HT2A receptor
  5-HT2A Affinity: 8.8
D2 receptor
  D2 Affinity: 6.9

## CN(C)CCO[C@]1(c2ccccc2)C[C@H]2CC[C@]1(C)C2(C)C.O=C(O)/C=C/C(=O)O [Deramciclane, (1R,2S,4R)-(−)-2-[2-(N,N-dimethylamino)-ethoxy]-2-phenyl-1,7,7-trimethylbicyclo[2.2.1]heptane]
5-HT2C receptor [2]
  5-HT2C Affinity: 7.8
[3]; [18]
  Formula I Affinity Ratio: 2.09
5-HT2A receptor
  5-HT2A Affinity: 8
D2 receptor
  D2 Affinity: 7

## Cc1cc2c(s1)Nc1ccccc1N=C2N1CCN(C)CC1 [Olanzapine]
[1]
  Extra-pyramidal side effects: 1-2
[4]
  Increases prolactin levels: 2
[5]
  Weight Gain: 2
[5]; text b109, literature reports
  weight gain (in words): do cause weight gain

## CSc1ccc2c(c1)N(CCC1CCCCN1C)c1ccccc1S2 (stereo not drawn) [Thioridazine]
D4 dopamine receptor
  D4 affinity value (−logKi): 7.9^12

## O=C1NCN(c2ccccc2)C12CCN(CCCC(c1ccc(F)cc1)c1ccc(F)cc1)CC2 [Fluspirilene]
α1-adrenoceptor [6]
  α1 affinity value (−logKi): 7.0^6
[7]
  mACh affinity value (−logKi): <5.3^6
5-HT1A receptor
  5-HT1A affinity value (−logKi): 7.3^6
α2-adrenoceptor; species for α2 not stated
  α2 affinity value (−logKi): <5.3^6
5-HT3 receptor
  5-HT3 affinity value (−logKi): <5.3^6
sigma, σ receptor
  sigma affinity value (−logKi): 6.8^6
[3]; Table 2, sum of affinity ratios from data of Table 1
  (2C/2A) + (2C/D2): 1.33
5-HT2C receptor [8]
  5-HT2C affinity value (−logKi): 5.7^6
[9]
  D2-S affinity value (−logKi): 8.9^6
5-HT7 receptor [10]
  5-HT7 affinity value (−logKi): 7.5^6
D4 dopamine receptor
  D4 affinity value (−logKi): 8.4^6
[11]
  D2-L affinity value (−logKi): 9.2^6

## O=C1Cc2cc(CCN3CCN(c4nsc5ccccc45)CC3)c(Cl)cc2N1 [Ziprasidone]
5-HT6 receptor
  5-HT6 affinity value (−logKi): 6.9^14
5-HT1A receptor
  5-HT1A affinity value (−logKi): 7.9^6
α2-adrenoceptor; no reference given
  α2 affinity value (−logKi): <6
5-HT3 receptor
  5-HT3 affinity value (−logKi): 5.5^6
[1]
  Extra-pyramidal side effects: 2
sigma, σ receptor
  sigma affinity value (−logKi): <5.3^6
[4]
  Increases prolactin levels: 3
α1-adrenoceptor [12]
  α1 affinity value (−logKi): 8.0^14
5-HT2C receptor [8]
  5-HT2C affinity value (−logKi): 7.9^6
5-HT7 receptor [13]
  5-HT7 affinity value (−logKi): 7.6^14
5-HT7 receptor [10]
  5-HT7 affinity value (−logKi): 8.3^6
D1 dopamine receptor [14]
  D1 affinity value (−logKi): 6.3^14
[5]
  Weight Gain: 3
[15]
  Improvement negative symptoms: 2

## CCN1CCCC1CNC(=O)c1cc(S(N)(=O)=O)ccc1OC (stereo not drawn) [Sulpiride]
5-HT6 receptor
  5-HT6 affinity value (−logKi): <5.3^2
D1 dopamine receptor [16]
  D1 affinity value (−logKi): <5^9
5-HT7 receptor [13]
  5-HT7 affinity value (−logKi): <5.3^2

## CN(C)CCCN1c2ccccc2Sc2ccc(Cl)cc21 [Chlorpromazine]
α1-adrenoceptor [17]
  α1 affinity value (−log KD): 8.6^16
